{"source": "patent US4038480A", "about": "“6-Aminocarbonyl purine 3',5'-cyclic nucleotides” (ICN Pharmaceuticals, Inc., priority 1973, dated 1977)", "key": {"[1]": {"test_system": "bovine brain C-AMP dependent kinase", "conditions": "relative to C-AMP; K. Muneyama et al; cited from earlier work"}, "[2]": {"test_system": "rabbit kidney high Km C-AMP phosphodiesterase", "assay": "Vulnerability to degradation (hydrolysis) by high Km C-AMP phosphodiesterase", "assay_type": "biochemical", "conditions": "for resistance to hydrolysis compared with C-AMP: rabbit kidney high Km phosphodiesterase", "source_text": "In fact, hydrolysis to any appreciable extent could be detected only in the case of compound 8 (hydrolysis at a rate only 8% that of C-AMP)."}, "[3]": {"target": "beef heart cAMP phosphodiesterase", "assay": "Inhibition of beef heart cAMP phosphodiesterase", "assay_type": "biochemical", "conditions": "read-out: I50, Beef Heart", "source_text": "(§1) The results appear in Table I below."}, "[4]": {"target": "rabbit lung cAMP phosphodiesterase", "assay": "Inhibition of rabbit lung cAMP phosphodiesterase", "assay_type": "biochemical", "conditions": "read-out: I50, Rabbit Lung", "source_text": "as §1"}, "[5]": {"test_system": "steroidogenisis", "assay": "Activation of steroidogenesis"}, "[6]": {"test_system": "lipolysis", "assay": "Activation of lipolysis"}, "[7]": {"assay": "Lowering of blood pressure", "conditions": "in vivo"}, "[8]": {"target": "bovine brain C-AMP dependent kinase", "assay": "Activation of C-AMP dependent protein kinase", "assay_type": "biochemical", "conditions": "for kinase activation compared with C-AMP: bovine brain kinase, comparison in words", "method": "Preferred carbamoyl compounds prepared as in the preceding examples were assayed for ability to activate protein kinase by the procedure described in K. Muneyama et al, Biochem. 10, 2390 (1971), using bovine brain C-AMP dependent kinase purified according to Kuo & Greengard, in Proc. Nat. Acad. Sci. U.S.A. 64, 1349 (1969). […] K. Muneyama et al, supra."}, "[9]": {"test_system": "adenyl cyclase", "assay": "Inhibition of adenyl cyclase", "assay_type": "biochemical"}, "[10]": {"assay": "Inotropic action (cardiac output, heart rate)", "assay_type": "in vivo", "conditions": "inotropic agent"}}, "note": "Structures can show the parent of a compound that is named as a salt."}
{"smiles": "Nc1ncnc2c1nc(S)n2[C@@H]1O[C@@H]2COP(=O)(O)O[C@H]2[C@H]1O", "note": "[8-thio derivative of C-AMP]", "values": [{"measurement": "Ka' (highest value previously reported in the literature)", "setting": "[1]", "value": 3.77}]}
{"smiles": "CNC(=O)Nc1ncnc2c1ncn2[C@@H]1O[C@@H]2COP(=O)(O)O[C@H]2[C@H]1OC(=O)NC", "note": "[Compound 2, N^6, 2'-O-bis-(N-Methylcarbamoyl)adenosine 3',5'-cyclic phosphate sodium salt]", "values": [{"measurement": "resistance to hydrolysis compared with C-AMP", "setting": "[2]", "value": "more resistant to hydrolysis than C-AMP"}]}
{"smiles": "CCCNC(=O)Nc1ncnc2c1ncn2[C@@H]1O[C@@H]2COP(=O)(O)O[C@H]2[C@H]1OC(=O)NCCC", "note": "[Compound 3, N^6, 2'-O-bis-(N-Propylcarbamoyl)adenosine 3', 5'-cyclic phosphate sodium salt]", "values": [{"measurement": "resistance to hydrolysis compared with C-AMP", "setting": "[2]", "value": "more resistant to hydrolysis than C-AMP"}]}
{"smiles": "O=C(Nc1ccccc1)Nc1ncnc2c1ncn2[C@@H]1O[C@@H]2COP(=O)(O)O[C@H]2[C@H]1OC(=O)Nc1ccccc1", "note": "[Compound 4, N^6, 2'-O-bis-(N-Phenylcarbamoyl)adenosine 3',5'-cyclic phosphate sodium salt]", "values": [{"measurement": "resistance to hydrolysis compared with C-AMP", "setting": "[2]", "value": "more resistant to hydrolysis than C-AMP"}, {"measurement": "IC50", "setting": "[3]", "value": 93, "unit": "µM"}, {"measurement": "IC50", "setting": "[4]", "value": 190, "unit": "µM"}]}
{"smiles": "CNC(=O)Nc1ncnc2c1ncn2[C@@H]1O[C@@H]2COP(=O)(O)O[C@H]2[C@H]1O", "note": "[Compound 5, N^6-(N-Methylcarbamoyl) adenosine 3',5'-cyclic phosphate]", "values": [{"measurement": "resistance to hydrolysis compared with C-AMP", "setting": "[2]", "value": "more resistant to hydrolysis than C-AMP"}, {"measurement": "activation of steroidogenesis, concentration compared with C-AMP", "setting": "[5]", "value": "at concentrations substantially lower than C-AMP"}, {"measurement": "activation of lipolysis, concentration compared with C-AMP", "setting": "[6]", "value": "at concentrations substantially lower than C-AMP"}, {"measurement": "lowering of blood pressure", "setting": "[7]", "value": "act to lower blood pressure"}]}
{"smiles": "CCCNC(=O)Nc1ncnc2c1ncn2[C@@H]1O[C@@H]2COP(=O)(O)O[C@H]2[C@H]1O", "note": "[Compound 6, N^6-(N-Propylcarbamoyl) adenosine 3',5'-cyclic phosphate]", "values": [{"measurement": "kinase activation compared with C-AMP", "setting": "[8]", "value": "superior in kinase activation to C-AMP itself"}, {"measurement": "resistance to hydrolysis compared with C-AMP", "setting": "[2]", "value": "more resistant to hydrolysis than C-AMP"}, {"measurement": "activation of steroidogenesis, concentration compared with C-AMP", "setting": "[5]", "value": "at concentrations substantially lower than C-AMP"}, {"measurement": "activation of lipolysis, concentration compared with C-AMP", "setting": "[6]", "value": "at concentrations substantially lower than C-AMP"}, {"measurement": "lowering of blood pressure", "setting": "[7]", "value": "act to lower blood pressure"}]}
{"smiles": "O=C(Nc1ccccc1)Nc1ncnc2c1ncn2[C@@H]1O[C@@H]2COP(=O)(O)O[C@H]2[C@H]1O", "note": "[Compound 7, N^6-(N-Phenylcarbamoyl)adenosine 3',5'-cyclic phosphate]", "values": [{"measurement": "Ka' (Ka for C-AMP/Ka for test compound)", "setting": "[8]; Ka from Lineweaver-Burk plot, relative to C-AMP", "value": 4.9}, {"measurement": "kinase activation compared with C-AMP", "setting": "[8]", "value": "superior in kinase activation to C-AMP itself"}, {"measurement": "activation of protein kinase relative to C-AMP (times better)", "setting": "[8]; bovine brain protein kinase, relative to C-AMP", "value": "approximately five"}, {"measurement": "resistance to hydrolysis compared with C-AMP", "setting": "[2]", "value": "more resistant to hydrolysis than C-AMP"}, {"measurement": "IC50", "setting": "[3]", "value": 22, "unit": "µM"}, {"measurement": "IC50", "setting": "[4]", "value": 160, "unit": "µM"}, {"measurement": "activation of steroidogenesis, concentration compared with C-AMP", "setting": "[5]", "value": "at concentrations substantially lower than C-AMP"}, {"measurement": "activation of lipolysis, concentration compared with C-AMP", "setting": "[6]", "value": "at concentrations substantially lower than C-AMP"}, {"measurement": "inhibition of adenyl cyclase", "setting": "[9]", "value": "inhibit adenyl cyclase"}, {"measurement": "effect on heart rate", "setting": "[10]", "value": "without deleteriously affecting heart rate"}, {"measurement": "persistence of inotropic action", "setting": "[10]", "value": "persistent in action"}, {"measurement": "increase of cardiac output compared with aminophylline", "setting": "[10]; compared with aminophylline", "value": "the equal of aminophylline in increasing cardiac output"}]}
{"smiles": "CCOC(=O)Nc1ncnc2c1ncn2[C@@H]1O[C@@H]2COP(=O)(O)O[C@H]2[C@H]1O", "note": "[Compound 8, N^6-(Ethoxycarbonyl)adenosine 3'5'-cyclic phosphate]", "values": [{"measurement": "resistance to hydrolysis compared with C-AMP", "setting": "[2]", "value": "more resistant to hydrolysis than C-AMP"}, {"measurement": "rate of hydrolysis relative to C-AMP", "setting": "[2]; rate as % that of C-AMP", "value": 8, "unit": "%"}, {"measurement": "IC50", "setting": "[3]", "value": 130, "unit": "µM"}, {"measurement": "IC50", "setting": "[4]", "value": 210, "unit": "µM"}, {"measurement": "activation of steroidogenesis, concentration compared with C-AMP", "setting": "[5]", "value": "at concentrations substantially lower than C-AMP"}, {"measurement": "activation of lipolysis, concentration compared with C-AMP", "setting": "[6]", "value": "at concentrations substantially lower than C-AMP"}, {"measurement": "lowering of blood pressure", "setting": "[7]", "value": "act to lower blood pressure"}]}
{"smiles": "CNC(=O)Nc1ncnc2c1nc(Br)n2[C@@H]1O[C@@H]2COP(=O)(O)O[C@H]2[C@H]1OC(=O)NC", "note": "[Compound 11, 8-Bromo-N^6,2'-O-bis-(N-methylcarbamoyl)adenosine 3',5'-cyclic phosphate]", "values": [{"measurement": "resistance to hydrolysis compared with C-AMP", "setting": "[2]", "value": "more resistant to hydrolysis than C-AMP"}, {"measurement": "IC50", "setting": "[3]", "value": 260, "unit": "µM"}, {"measurement": "IC50", "setting": "[4]", "value": 130, "unit": "µM"}]}
{"smiles": "O=C(Nc1ccccc1)Nc1ncnc2c1nc(SCc1ccccc1)n2[C@@H]1O[C@@H]2COP(=O)(O)O[C@H]2[C@H]1OC(=O)Nc1ccccc1", "note": "[Compound 12, 8-Benzylthio-N^6,2'-O-bis-(N-phenylcarbamoyl) adenosine 3',5'-cyclic phosphate sodium salt]", "values": [{"measurement": "resistance to hydrolysis compared with C-AMP", "setting": "[2]", "value": "more resistant to hydrolysis than C-AMP"}, {"measurement": "IC50", "setting": "[3]", "value": 22, "unit": "µM"}, {"measurement": "IC50", "setting": "[4]", "value": 10, "unit": "µM"}]}
{"smiles": "O=C(Nc1ccccc1)Nc1ncnc2c1nc(SCc1ccccc1)n2[C@@H]1O[C@@H]2COP(=O)(O)O[C@H]2[C@H]1O", "note": "[Compound 15, 8-Benzylthio-N^6-(N-phenylcarbamoyl)adenosine 3',5'-cyclic phosphate]", "values": [{"measurement": "kinase activation compared with C-AMP", "setting": "[8]", "value": "superior in kinase activation to C-AMP itself"}, {"measurement": "resistance to hydrolysis compared with C-AMP", "setting": "[2]", "value": "more resistant to hydrolysis than C-AMP"}, {"measurement": "IC50", "setting": "[3]", "value": 14, "unit": "µM"}, {"measurement": "IC50", "setting": "[4]", "value": 21, "unit": "µM"}, {"measurement": "inhibition of adenyl cyclase", "setting": "[9]", "value": "inhibit adenyl cyclase"}, {"measurement": "lowering of blood pressure", "setting": "[7]", "value": "act to lower blood pressure"}]}
{"smiles": "CNC(=O)Nc1ncnc2c1nc(S)n2[C@@H]1O[C@@H]2COP(=O)(O)O[C@H]2[C@H]1OC(=O)NC", "note": "[Compound 16, N^6,2'-O-bis-(N-Methylcarbamoyl)-8-mercaptoadenosine 3',5'-cyclic phosphate sodium salt]", "values": [{"measurement": "resistance to hydrolysis compared with C-AMP", "setting": "[2]", "value": "more resistant to hydrolysis than C-AMP"}]}
{"smiles": "Cn1c(=O)c2[nH]cnc2n(C)c1=O", "note": "[Theophylline, reference compound]", "values": [{"measurement": "IC50", "setting": "[3]", "value": 130, "unit": "µM"}, {"measurement": "IC50", "setting": "[4]", "value": 230, "unit": "µM"}]}
